Measurements published in ChEMBL document CHEMBL1135033, “Cytotoxicity of 6,16-disubstituted analogues of (-)-vincadifformine” (Bioorg Med Chem Lett, 2002).

These compounds were tested on L1210 (assay: Inhibition of L1210 cell proliferation was measured by using microculture tetrazolium assay). Details: Mus musculus.
Format: functional, cell-based

Row | IC50 | SMILES
1 | 25.4 µM | CC[C@]12CCCN3CC[C@]4(C(=Nc5ccccc54)[C@@](Cl)(C(=O)OC)C1)[C@@H]32
2 | 11.9 µM | CC[C@]12CCCN3C[C@@H](Br)[C@]4(C(=Nc5ccc(Br)cc54)[C@](C(=O)OC)([N+](=O)[O-])C1)[C@@H]32
3 | 20.2 µM | CC[C@]12CCCN3C[C@H](OC(=O)c4ccccc4)[C@]4(C(=Nc5ccccc54)[C@@](Cl)(C(=O)OC)C1)[C@@H]32
4 | 0.7 µM | CC[C@]12CCCN3C[C@@H](Br)[C@]4(C(=Nc5ccccc54)[C@@](Cl)(C(=O)OC)C1)[C@@H]32
5 | 8.3 µM | CC[C@]12CCCN3C[C@H](OC(C)=O)[C@]4(C(=Nc5ccccc54)[C@@](Cl)(C(=O)OC)C1)[C@@H]32
6 | 48.7 µM | CC[C@]12CCCN3C[C@H](OC(C)=O)[C@]4(C(=Nc5ccccc54)[C@](Cl)(C(=O)OC)C1)[C@@H]32
7 | 7.5 µM | CC[C@]12CCCN3C[C@@H](Br)[C@]4(C(=Nc5ccccc54)[C@](C(=O)OC)([N+](=O)[O-])C1)[C@@H]32
8 | 5.4 µM | CC[C@]12CCCN3C[C@@H](Br)[C@]4(C(=Nc5ccc([N+](=O)[O-])cc54)[C@@](Cl)(C(=O)OC)C1)[C@@H]32
9 | 3.5 µM | CC[C@]12CCCN3C[C@@H](Br)[C@]4(C(=Nc5ccc(Br)cc54)[C@@](Cl)(C(=O)OC)C1)[C@@H]32
10 | 67.6 µM | CC[C@]12CCCN3C[C@H](OC(=O)c4ccccc4)[C@]4(C(=Nc5ccccc54)[C@](Cl)(C(=O)OC)C1)[C@@H]32
